“Also recorded” adds a separate entry of the source. Where two headings read alike, the source gives them in different places. Values belong to the compound of their own block, whether it stands above or below them.
Tests used:
[1] = system: patients with chorea associated with HD; conditions: cited from earlier work
[2] = biological target: T1, serotonin 5-HT1A receptors (Rattus norvegicus, UniProt P19327); experiment: [35S]GTPγS binding G-protein activation assay, rat hippocampal membranes; type: biochemical; conditions: for Emax: read-out: Emax, stimulation of [35S]GTPγS binding relative to 5-HT
T1 construct: Hippocampi were dissected and homogenized in 20 volumes of buffer A; from tissue; host or cells: rat hippocampus membranes (male Sprague-Dawley)
T1 sequence (P19327 1-422): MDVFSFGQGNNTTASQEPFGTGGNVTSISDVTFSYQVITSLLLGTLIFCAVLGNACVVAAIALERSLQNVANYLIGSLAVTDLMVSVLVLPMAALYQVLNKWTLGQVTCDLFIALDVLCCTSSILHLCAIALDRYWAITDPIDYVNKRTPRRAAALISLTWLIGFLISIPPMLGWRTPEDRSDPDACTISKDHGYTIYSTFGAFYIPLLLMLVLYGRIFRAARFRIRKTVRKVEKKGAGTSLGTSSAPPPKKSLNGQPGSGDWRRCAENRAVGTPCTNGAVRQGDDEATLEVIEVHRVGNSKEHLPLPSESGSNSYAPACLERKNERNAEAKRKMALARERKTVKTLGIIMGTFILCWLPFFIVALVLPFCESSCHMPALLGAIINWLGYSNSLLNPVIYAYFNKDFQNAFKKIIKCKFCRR
Experimental: Agonist efficacy for stimulation of G-protein activation at serotonin 5-HT1A receptors can be determined by [^35S]GTPγS binding assays as follows. Experiments employed brains of male Sprague-Dawley rats which were stored at −70° C. before use in binding assays. Experiments were carried out in triplicate and repeated at least three times. Frozen brains were thawed in ice-cold buffer A (50 mM Hepes containing 150 mM NaCl, 0.2 mM EDTA, 1 mM GTP, 10 μM pargyline; pH 7.4, 23° C.). Hippocampi were dissected and homogenized in 20 volumes of buffer A before incubation at 37° C. for 10 min to dissociate endogenous neurotransmitters from receptors. The homogenate was centrifuged at 20 000 g for 15 min, at 4° C. The pellet was re-suspended in buffer A and recentrifuged as before. The pellet was then re-suspended in buffer B (50 mM Hepes containing 150 mM NaCl, 0.2 mM EDTA, 5 mM MgCl2, 100 μM GDP, 10 μM pargyline), centrifuged as before and re-suspended in buffer B. Membranes were incubated in buffer B with test compounds and 0.1 nM [^35S]GTPγS for 60 min at 37° C. The incubation was terminated by rapid filtration through Whatman GF-B fiber filters using a Brandel harvester. Radioactivity retained on the filters was measured by liquid scintillation counting. Data were analyzed using a nonlinear curve-fitting program (Prism, Graphpad Software, San Diego, Calif., USA), and are expressed as mean value±S.E.M.
It should be noted that 5-HT can activate different 5-HT receptors. Herein, only the proportion of 5-HT's effect which is 5-HT1A receptor-dependent was considered in the calculations.

[3] = system: TBZ-treated rats (immobility, depression behavior); experiment: Forced Swim Test, 5-HT1A receptor agonists in TBZ-treated rats; type: in vivo, rat; conditions: TBZ […] i.p.
Experimental: The experiments were performed on male Wistar rats (170-200 g) obtained from an accredited animal facility at the Jagiellonian University Medical College, Poland. The animals were housed in group of four in controlled environment (ambient temperature […]; relative humidity 55%±10%; 12-h light/dark cycles (lights on at 8:00). Standard laboratory food (LSM-B) and filtered water were freely available. Animals were assigned randomly to treatment groups. All the experiments were performed by two observers unaware of the treatment applied between 9:00 and 14:00 on separate groups of animals. All animals were used only once. All the experimental procedures complied with the European Communities Council Directive of 24 Nov. 1986 (86/609/EEC) and were in accordance with the 1996 NIH Guide for the Care and Use of Laboratory Animals.
Tetrabenazine (TBZ) was dissolved in a vehicle solution of 0.9% saline and dimethylsulfoxide (DMSO) (20%). 10-μl hydrochloric acid (HCl) was then added to achieve full solubilization of the drug. TBZ (1.5 mg/kg) was administered intraperitoneally (i.p.).
All compounds were given in a volume of 2 ml/kg. […]
The experiment was carried out according to a well-characterized method (Porsolt, R. D., et al., 1978 Eur J Pharmacol 47, 379-91). On the first day of an experiment, the animals (at least n=6 per group) were gently individually placed in Plexiglas cylinders (40 cm high, 18 cm in diameter) containing water (17 cm deep) maintained at 23-25° C. for 15 min. On removal from water, the rats were placed for 30 min in a Plexiglas box under a 60 W incandescent filament bulb to dry. On the following day (24 h later), TBZ (1.5 mg/kg) was administered to rats by intraperitoneal (i.p.) route 90 min before testing. Serotonin 5-HT1A receptor agonists were then administered to rats by oral administration (p.o.) 60 minutes before the rats were re-placed in the cylinder and the total duration of their immobility was recorded during the 5-min test period. The swimming behavior entailed active swimming motions, e.g., moving horizontally around in the cylinder, and immobility was assigned when no additional activity was observed other than that necessary to keep the rat's head above the water.

[4] = system: TBZ-treated rats (catalepsy); experiment: Cross-legged position (CLP) catalepsy test, TBZ-induced catalepsy; type: in vivo, rat; conditions: TBZ 2 mg/kg i.p.
Experimental: Animals were obtained, housed and handled according to the same protocols described for Example 3. Similarly, drugs were prepared and administered according to the same protocols described for Example 3. All compounds were tested at the dose of 0.63 mg/kg.
Catalepsy induction in rats is a recognized model of Parkinsonism (Duty, S., 2011 Br J Pharmacol. 164, 1357-91). Here, catalepsy was measured using the cross-legged position test (CLP test) according to the method described by (Prinssen, E. P., et al., 1998 Eur J Pharmacol. 356, 189-92). Serotonin 5-HT1A receptor agonists were administered to rats (at least 6 per group) by oral administration (p.o.) 55 minutes before the CLP test, TBZ (2 mg/kg) was administered to rats by intraperitoneal (i.p.) route 30 min before testing. In the CLP test, the hind-limbs were placed over the ipsilateral forelimbs and the time during which an animal remained in this position was determined up to maximum of 30 seconds. The test was repeated three times (inter-trial time: 3 minutes) and the mean of the three trials was used for analysis. Animals were put back in their home cage after each set of tests.

[5] = biological target: other 5-HT, dopaminergic, adrenergic receptors; conditions: cited from earlier work
[6] = cited from earlier work
[7] = 0.63 mg/kg p.o. ((±)8-OH-DPAT s.c.)
[8] = agonist 10 μM, % of stimulation by 5-HT 10 μM (5-HT1A-dependent part)

Compound: COc1cc2c(cc1OC)[C@@H]1CC(=O)[C@@H](CC(C)C)CN1CC2 (racemic) [TBZ, (SS,RR)-3-Isobutyl-9,10-dimethoxy-1,3,4,6,7,11b-hexahydro-pyrido[2,1-a]isoquinolin-2-one]
- patients with symptoms suggestive of Parkinsonism ([1]; 12-week double-blind, placebo-controlled study, placebo 0%): 15%
- patients with symptoms suggestive of Parkinsonism ([1]; 48-week open-label study): 10%
- patients with symptoms suggestive of Parkinsonism ([1]; 80-week open-label study): 3%

- share of 5-HT-induced [35S]GTPγS binding mediated by 5-HT1A receptors ([2]; from WAY100635 (1 μM) co-incubation): 85%
Compound: NCCc1c[nH]c2ccc(O)cc12 [5-HT, 5-hydroxytryptamine]

Compound: Cc1ccc(CNCC2(F)CCN(C(=O)c3ccc(F)c(Cl)c3)CC2)nc1 [befiradol, (3-Chloro-4-fluoro-phenyl)-[4-fluoro-4-{[(5-methyl-pyridin-2-ylmethyl)-amino]-methyl}piperidin-1-yl]methanone]
- effect on immobility duration in TBZ-treated rats [3, 7]: significantly decreased durations of immobility
- effect on immobility duration in TBZ-treated rats ([3]; 0.63 mg/kg p.o. ((±)8-OH-DPAT s.c.), listed as Befiradol): significantly reduced immobility times
- Emax [2]: > 90%
- effect on TBZ-induced CLP catalepsy duration [4, 7]: almost no CLP catalepsy; also recorded: significantly decreased durations of immobility
- pKi at other 5-HT, dopaminergic, adrenergic receptors [5]: less than 6

- Emax [2, 8]: ~50%
Compound: O=C1CC2(CCCC2)CC(=O)N1CCCCN1CCN(c2ncccn2)CC1 [buspirone]
- effect on immobility duration in TBZ-treated rats ([3]; buspirone 0.63 or 2.5 mg/kg p.o.): did not reduce immobility
- effect on immobility duration in TBZ-treated rats ([3]; buspirone 0.63 or 2.5 mg/kg p.o., listed as Buspirone): did not reduce immobility duration significantly
- effect on TBZ-induced CLP catalepsy duration ([4]; buspirone 0.63, 2.5 or 5 mg/kg): does not diminish TBZ-induced catalepsy behavior; also recorded: None of the doses of buspirone showed durations of catalepsy that differed significantly

Compound: CCCN(CCC)C1CCc2cccc(O)c2C1 (racemic) [(±)8-OH-DPAT, (±)8-hydroxy-2-(di-n-propylamino)tetralin]
- Emax, stimulation of [35S]GTPγS binding relative to 5-HT [2, 8]: intermediate between that of buspirone and the other compounds; also recorded: intermediate efficacy
- effect on TBZ-induced CLP catalepsy duration [4, 7]: almost no CLP catalepsy; also recorded: significantly decreased durations of immobility
- oral bioavailability [6]: poorly bioavailable by oral route

Compound: Cc1cnc(CNCC2(F)CCN(C(=O)c3ccc(F)c(Cl)c3)CC2)nc1 [derivative 1a, 3-chloro-4-fluorophenyl-[4-fluoro-4-[[(5-methylpyrimidin-2-ylmethyl)amino]methyl]piperidin-1-yl]methanone]
- Emax [2]: > 90%
- effect on TBZ-induced CLP catalepsy duration [4, 7]: almost no CLP catalepsy; also recorded: significantly decreased durations of catalepsy
